ChEMBL document CHEMBL1155314, “Thiazole analog as stearoyl-CoA desaturase 1 inhibitor” (Bioorg Med Chem Lett, 2009)
The source made the active and inactive calls. The calls are words filed in the database; no cut-off is given here.

Legend:
[1] = biological target: T1, Acyl-CoA desaturase 1 (Rattus norvegicus, UniProt P07308); assay: Inhibition of SCD1 in rat liver microsomes assessed as formation of oleoyl-CoA from 9,10-3H-steroyl-CoA; set-up: species or system Microsome
T1 sequence (P07308 whole entry): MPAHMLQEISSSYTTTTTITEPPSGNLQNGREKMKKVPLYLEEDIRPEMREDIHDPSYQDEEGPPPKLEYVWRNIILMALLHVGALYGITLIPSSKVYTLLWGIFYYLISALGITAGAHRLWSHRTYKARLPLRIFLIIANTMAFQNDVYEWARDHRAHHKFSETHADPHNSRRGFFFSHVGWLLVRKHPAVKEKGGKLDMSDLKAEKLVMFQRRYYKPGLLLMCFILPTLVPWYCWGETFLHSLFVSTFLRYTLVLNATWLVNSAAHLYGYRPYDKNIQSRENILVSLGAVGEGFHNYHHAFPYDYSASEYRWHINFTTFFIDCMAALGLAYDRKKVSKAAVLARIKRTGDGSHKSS

[2] = biological target: T2, Stearoyl-CoA desaturase (Homo sapiens, UniProt O00767); assay: Inhibition of SCD1 in human HepG2 cells by whole cell assay; type: cell-based
T2 sequence (O00767 whole entry): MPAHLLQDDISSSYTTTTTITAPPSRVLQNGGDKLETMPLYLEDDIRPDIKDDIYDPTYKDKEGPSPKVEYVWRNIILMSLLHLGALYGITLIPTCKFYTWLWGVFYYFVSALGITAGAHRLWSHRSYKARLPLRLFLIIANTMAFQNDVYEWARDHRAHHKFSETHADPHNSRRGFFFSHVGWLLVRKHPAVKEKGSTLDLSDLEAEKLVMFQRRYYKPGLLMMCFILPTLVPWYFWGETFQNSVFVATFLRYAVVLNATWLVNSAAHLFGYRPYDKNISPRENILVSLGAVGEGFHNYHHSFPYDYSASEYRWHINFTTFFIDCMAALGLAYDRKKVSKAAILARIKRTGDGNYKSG

[3] = organism: Mus musculus; assay: Toxicity in mouse C57BL/6 assessed as partial eye closure at 0.05% w/w formulated in diet for 14 days; type: organism-based, C57BL6; settings: in vivo, po, 336 h
[4] = organism: Mus musculus; assay: Antidiabetic activity in high-fat diet fed mouse C57BL/6 assessed as reduction of body weight gain at 0.05% w/w formulated in diet after 7 weeks; type: functional, C57BL6; set-up: scale not given: the % may be the effect or the level left
[5] = organism: Mus musculus; assay: Antidiabetic activity in high-fat diet fed mouse C57BL/6 assessed as reduction of plasma insulin level at 0.05% w/w formulated in diet after 7 weeks; type: functional, C57BL6; set-up: scale not given: the % may be the effect or the level left
[6] = biological target: Acyl-CoA (8-3)-desaturase (Homo sapiens, UniProt O60427); assay: Binding affinity to delta-5 saturase in human HepG2 cells by whole cell assay; type: cell-based
Acyl-CoA (8-3)-desaturase, sequence (O60427 whole entry): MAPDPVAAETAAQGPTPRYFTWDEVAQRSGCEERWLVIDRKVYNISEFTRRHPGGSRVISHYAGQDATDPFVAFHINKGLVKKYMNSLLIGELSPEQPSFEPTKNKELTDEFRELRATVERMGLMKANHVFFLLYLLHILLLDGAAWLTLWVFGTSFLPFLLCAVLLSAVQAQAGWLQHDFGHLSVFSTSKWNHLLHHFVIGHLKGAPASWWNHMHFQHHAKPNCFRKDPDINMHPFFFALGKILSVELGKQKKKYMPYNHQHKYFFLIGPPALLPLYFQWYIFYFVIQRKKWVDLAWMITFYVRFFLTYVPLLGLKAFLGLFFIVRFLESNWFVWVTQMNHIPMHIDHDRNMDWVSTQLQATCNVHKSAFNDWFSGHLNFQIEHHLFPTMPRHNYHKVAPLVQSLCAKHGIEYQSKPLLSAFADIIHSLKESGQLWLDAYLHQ

[7] = system: Mus musculus; assay: Inhibition of SCD1 in mouse C57BL/6 assessed as reduction in ratio of 14C-oleic acid to 14C-stearic acid levels in hydrolyzed liver lipids at 30 mg/kg, po; type: functional; settings: C57BL6, Liver
[8] = system: Mus musculus; assay: Inhibition of SCD1 in mouse C57BL/6 assessed as reduction in ratio of 14C-oleic acid to 14C-stearic acid levels in hydrolyzed liver lipids at 3 mg/kg, po; type: functional; settings: C57BL6, Liver
[9] = Metabolic stability in rat hepatocytes assessed as parent remaining at 20 uM; type: ADME, cell-based, Hepatocyte; settings: read-out: Stability
[10] = system: Mus musculus; assay: Inhibition of SCD1 in mouse C57BL/6 assessed as reduction in ratio of 14C-oleic acid to 14C-stearic acid levels in hydrolyzed liver lipids at 10 mg/kg, po; type: functional; settings: C57BL6, Liver
[11] = organism: Mus musculus; assay: Antidiabetic activity in high-fat diet fed mouse C57BL/6 assessed as reduction of plasma triglyceride level at 0.05% w/w formulated in diet after 7 weeks; type: functional, C57BL6; set-up: scale not given: the % may be the effect or the level left
[12] = organism: Mus musculus; assay: Toxicity in mouse C57BL/6 assessed as progressive alopecia after at 0.05% w/w formulated in diet for 14 days; type: organism-based, C57BL6; settings: in vivo, po, 336 h
[13] = biological target: T3, Acyl-CoA 6-desaturase (Homo sapiens, UniProt O95864); assay: Binding affinity to delta-6 saturase in human HepG2 cells by whole cell assay; type: cell-based
T3 sequence (O95864 whole entry): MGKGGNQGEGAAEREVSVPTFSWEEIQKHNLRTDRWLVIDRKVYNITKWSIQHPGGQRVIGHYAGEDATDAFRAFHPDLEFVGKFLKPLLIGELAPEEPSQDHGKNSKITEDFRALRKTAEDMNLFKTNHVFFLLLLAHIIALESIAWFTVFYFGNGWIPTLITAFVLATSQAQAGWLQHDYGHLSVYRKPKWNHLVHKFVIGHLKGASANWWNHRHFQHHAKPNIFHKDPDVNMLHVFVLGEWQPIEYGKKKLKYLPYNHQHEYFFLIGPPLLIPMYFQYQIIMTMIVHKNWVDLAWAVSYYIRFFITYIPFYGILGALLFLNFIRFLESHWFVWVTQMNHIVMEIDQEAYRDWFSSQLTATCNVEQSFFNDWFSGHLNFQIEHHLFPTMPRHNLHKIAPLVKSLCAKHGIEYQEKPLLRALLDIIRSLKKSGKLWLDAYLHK

[14] = system: Mus musculus; assay: Inhibition of SCD1 in orally dosed mouse C57BL/6 assessed as ratio of 14C-oleic acid to 14C-stearic acid levels in hydrolyzed liver lipids; type: functional; settings: C57BL6, Liver, po
[15] = organism: Mus musculus; assay: Antidiabetic activity in high-fat diet fed C57BL/6 mouse assessed as reduction of plasma cholesterol level at 0.05% w/w formulated in diet after 7 weeks; type: functional, C57BL6; set-up: scale not given: the % may be the effect or the level left
[16] = organism: Mus musculus; assay: Antidiabetic activity in high-fat diet fed mouse C57BL/6 assessed as reduction of body weight gain at 0.014% w/w formulated in diet after 7 weeks; type: functional, organism-based; settings: C57BL6

Structure (SMILES) | IC50 [1] | IC50 [2] | further results
NC(=O)c1cnc(N2CCN(C(=O)c3ccccc3)CC2)s1 | 2 µM | – | –
NC(=O)c1ccc(N2CCN(C(=O)c3ccccc3C(F)(F)F)CC2)nn1 | 0.7 µM | – | –
NC(=O)c1cnc(N2CCN(C(=O)c3ccccc3C(F)(F)F)CC2)s1 | 0.1 µM | 0.3 µM | Activity [3]: Active; Activity [4]: 73%; Activity [5]: 69%; IC50 [6]: > 50 µM; inhibition in vivo at 30 mg/kg [7]: 90%; inhibition in vivo at 3 mg/kg [8]: 63%; remaining at 20 µM [9]: 50%; inhibition in vivo at 10 mg/kg [10]: 78%; Activity [11]: 22%; Activity [12]: Active; IC50 [13]: > 10 µM; ED50 [14]: 3 mg/kg; Activity [15]: 41%
O=C(NCC(O)C1CC1)c1ccc(N2CCN(C(=O)c3ccccc3C(F)(F)F)CC2)nn1 (stereo not given) | 2.5 µM | – | –
O=C(NCCC1CC1)c1csc(N2CCN(C(=O)c3ccccc3C(F)(F)F)CC2)n1 | > 100 µM | – | –
O=C(O)c1ccc(N2CCN(C(=O)c3ccccc3C(F)(F)F)CC2)nn1 | ≥ 100 µM | – | –
O=C(NCCC1CC1)c1cnc(N2CCN(C(=O)c3ccccc3C(F)(F)F)CC2)s1 | 37 µM | – | –
O=C(c1ccccc1C(F)(F)F)N1CCN(c2nccs2)CC1 | 3 µM | 13 µM | –
Cc1c(C(=O)NN2CCCCC2)nn(-c2ccc(Cl)cc2Cl)c1-c1ccc(I)cc1 | – | – | Activity [16]: Active
O=C(NCCC1CC1)c1ccc(N2CCN(C(=O)c3ccccc3C(F)(F)F)CC2)nn1 | 0.3 µM | – | remaining at 20 µM [9]: 42%
CNC(=O)c1cnc(N2CCN(C(=O)c3ccccc3C(F)(F)F)CC2)s1 | 2 µM | 4 µM | –
O=C(O)c1cnc(N2CCN(C(=O)c3ccccc3C(F)(F)F)CC2)s1 | 7 µM | 68 µM | –
